Earlier results, collected in patent publication US20110105443A1, “SALTS OF MEMANTINE AND COX-INHIBITORS AND THEIR CRYSTAL FORM IN THE TREATMENT OF PAIN” (LABORATORIES DEL DR. ESTEVE, S.A., priority 2008, published 2011).

Conditions: stated property of the free drug (base or acid), no method given

SMILES: CC(=O)Oc1cc(C(F)(F)F)ccc1C(=O)O [Triflusal, 2-acetoxy-4-trifluoromethyl-benzoic acid]
- pKa: 3.34
